Key:
K562 = assay: MTT assay of anti-tumor activity, K562; assay type: cell-based; conditions: K562 cells
Protocol: (§1) The cells were digested and counted. The cell suspension was prepared in a concentration of 5×10^4 cells/ml. 100 μL of the cell suspension per well was added into 96-well plates (5×10^3 cells per well). The 96-well plates were placed in a 5% CO2 incubator at 37° C. for 24 hours. The drugs were diluted with the complete medium to the desired concentrations. 100 μL of the corresponding drug-containing medium was added into each well. Negative control group, vehicle control group and positive control group were set. The 96-well plates were placed in 5% CO2 incubator at 37° C. for 72 hours. The 96-well plates were subjected to a MTT assay, and measured OD value at λ=490 nm. The measurement procedure comprises adding 20 μL MTT (5 mg/ml) for each well, incubating for 4 hours in an incubator, discarding the medium, dissolving by adding 150 μL DMSO into each well, mixing uniformly by rocking gently for 10 minutes on a shaker, reading OD value of each well in a microplate reader at λ=490 nm. The inhibition rate was calculated, the results were recorded, and the anti-tumor activity was assessed.

MCF-7 = assay: MTT assay of anti-tumor activity, MCF-7; assay type: cell-based
Protocol: as §1

HCT-116 = assay: MTT assay of anti-tumor activity, HCT-116; assay type: cell-based; conditions: HCT-116 cells
Protocol: as §1

NCI-H460 = assay: MTT assay of anti-tumor activity, NCI-H460; assay type: cell-based; conditions: NCI-H460 cells
Protocol: as §1

DU-145 = assay: MTT assay of anti-tumor activity, DU-145; assay type: cell-based; conditions: DU-145 cells
Protocol: as §1

tubulin = assay: Inhibitory activity on tubulin polymerization (kit BK011P, Cytoskeleton); assay type: biochemical; conditions: 37° C., 60 minutes, fluorescence, Vmax
Protocol: The compounds were formulated into six different concentrations (0.03, 0.3, 0.9, 3, 9, 30 μM). The tubulin polymerization assay kit (Cat. # BK011P, Cytoskeleton) was used for testing. The samples were incubated at 37° C. for 60 minutes, and then fluorescence was collected using Gemini EM Fluorescence Microplate Reader collected at 410-460 nm. Vmax was calculated using SOFTMAX® PRO microplate data acquisition & analysis software. The tubulin inhibition (IC50) of the compound was calculated using GRAPHPAD PRISM® v5.01 graphing and statistics software.

[1] = Homo sapiens, MCF7, 72 h, MCF-7 cells

Structure (SMILES) | IC50 (K562; Homo sapiens, K562, 72 h) [nM] | IC50 (MCF-7; [1]) [nM] | IC50 (HCT-116; Homo sapiens, HCT-116, 72 h) [nM] | IC50 (NCI-H460; Homo sapiens, NCI-H460, 72 h) [nM] | IC50 (DU-145; Homo sapiens, DU-145, 72 h) [nM] | IC50 (tubulin) [nM] | melting point [°C] | further results
COc1ccc(/C=C\c2cc(OC)c(OC)c(OC)c2)cc1O [CA4, cis-1-(3,4,5-trimethoxyphenyl)-2-(3′-hydroxy-4′-methoxyphenyl)ethylene, reference compound] | 5.2 | 5.5 | 43 | 5.6 | 7.2 | […] |  | 
COc1ccc(-c2c(-c3cc(OC)c(OC)c(OC)c3)ncn2-c2ccccc2)cc1O [Compound C087, 5-(3-hydroxy-4-methoxyphenyl)-4-(3,4,5-trimethoxyphenyl)-1-phenylimidazole] |  |  |  |  |  |  | 176 to 177 | IC50 (K562; Homo sapiens, 72 hours): 4.6 nM; IC50 (MCF-7; Homo sapiens, MCF7, MCF-7 cells, 72 hours): 6.2 nM; IC50 (HCT-116; Homo sapiens, 72 hours): 77 nM; IC50 (NCI-H460; Homo sapiens, 72 hours): 153 nM; IC50 (DU-145; Homo sapiens, 72 hours): > 300 nM
COc1cc(-c2ncn(-c3cc(OC)c(OC)c(OC)c3)c2-c2ccc(N(C)C)cc2)cc(OC)c1OC [Compound C106, 5-(4-dimethylaminophenyl)-4-(3,4,5-trimethoxyphenyl)-1-(3,4,5-trimethoxyphenyl)imidazole] | 3.2 | 7.3 | 136 | > 300 | 92.3 |  | 168.8 to 170.9 | 
COc1cc(OC)cc(-c2ncoc2-c2ccc(OC)c(O)c2)c1 [Compound C110, 4-(3,5-dimethoxyphenyl)-5-(3-hydroxy-4-methoxyphenyl)oxazole] | 49 | 210 | 71 | 33 | 2.5 | 470 | 149.9 to 151.6 | 
COc1cc(OC)cc(-c2ncoc2-c2ccc(OC)c(N)c2)c1 [Compound C115, 4-(3,5-dimethoxyphenyl)-5-(3-amino-4-methoxyphenyl)oxazole] | 5.7 | 101 | 335 | 52 | > 300 | 460 |  | 
COc1cc(OC)cc(-c2ncoc2-c2ccc(OC)c(O)c2O)c1 [Compound C116, 4-(3,5-dimethoxyphenyl)-5-(2,3-dihydroxy-4-methoxyphenyl)oxazole] |  |  |  |  |  | 530 | 178.6 to 180.4 | 
COc1cc(OC)cc(-c2ncoc2-c2ccc(OC)c(O)c2F)c1 [Compound C117, 4-(3,5-dimethoxyphenyl)-5-(2-fluoro-3-hydroxy-4-methoxyphenyl)oxazole] | 8.5 | 88.9 | > 300 | 10.2 | 130 |  | 168.1 to 172.4 | 
COc1cc(OC)cc(-c2nc[nH]c2-c2ccc(OC)c(O)c2)c1 [Compound C118, 4-(3,5-dimethoxyphenyl)-5-(3-hydroxy-4-methoxyphenyl)-imidazole] | 2.8 | 46.3 | 40.5 | 14.3 |  | 490 |  | 
COc1cc(OC)cc(-c2ncoc2-c2ccc(OC)c(N)c2N)c1 [Compound C121, 4-(3,5-dimethoxyphenyl)-5-(2,3-diamino-4-methoxyphenyl)oxazole] |  |  |  |  |  | 2350 | 132.6 to 134 | 
CNc1ccc(-c2ocnc2-c2cc(OC)cc(OC)c2)cc1O [Compound C123, 4-(3,5-dimethoxyphenyl)-5-(3-hydroxy-4-methylaminophenyl)oxazole] | 7.2 | 1.2 | > 300 |  | > 300 | 660 | 149.9 to 151.6 | IC50 (HCT-116; 72 hours): 189 nM
COc1cc(OC)cc(-c2ncoc2-c2ccc(OC)c(O)c2N)c1 [Compound C124, 4-(3,5-dimethoxyphenyl)-5-(2-amino-3-hydroxy-4-methoxyphenyl)oxazole] | 6.4 | 4.3 | 33 | > 300 | 280 | 1040 |  | 
COc1cc(OC)cc(-c2nc[nH]c2-c2ccc(OC)c(N)c2)c1 [Compound C129, 4-(3,5-dimethoxyphenyl)-5-(3-amino-4-methoxyphenyl)imidazole] |  |  |  |  |  | 660 |  | 
COc1cc(OC)cc(-c2ncn(C)c2-c2ccc(OC(F)F)c(N)c2)c1 [Compound C135, 4-(3,5-dimethoxyphenyl)-5-(3-amino-4-difluoromethoxyphenyl)-1-methylimidazole] | 6.9 | 5.6 | 68 | 76.3 | 161 |  | 99.2 to 101.3 | 
COc1cc(OC)cc(-c2nc[nH]c2-c2ccc(OC)c(O)c2N)c1 [Compound C147, 4-(3,5-dimethoxyphenyl)-5-(2-amino-3-hydroxy-4-methoxyphenyl)imidazole] | 7.6 | 8.9 | > 300 | 89.3 | 123 |  |  | 
COc1cc(OC)cc(-c2ncn(C)c2-c2scc3c2OCCO3)c1 [Compound C238, N-methyl-4-(3,5-dimethoxyphenyl)-5-[(3,4-ethylenedioxyl)thienyl]imidazole] |  |  |  |  |  |  |  | IC50 (K562; 72 hours): 11.2 nM; IC50 (MCF-7; MCF-7 cells, 72 hours): 6.1 nM; IC50 (HCT-116; 72 hours): 230 nM; IC50 (NCI-H460; 72 hours): > 300 nM; IC50 (DU-145; 72 hours): 150 nM
COc1cc(-c2ncn(CCO)c2-c2ccc(N(CCCl)CCCl)cc2)cc(OC)c1OC [Compound C248] |  |  |  |  |  |  |  | IC50 (K562; 72 hours): 11.2 nM; IC50 (MCF-7; MCF-7 cells, 72 hours): 6.9 nM; IC50 (HCT-116; 72 hours): 312 nM; IC50 (NCI-H460; 72 hours): 10.3 nM; IC50 (DU-145; 72 hours): > 300 nM
COc1cc(OC)cc(-c2ncoc2-c2ccc3c(c2)NC(=O)CO3)c1 [Compound C253, 4-(3,5-dimethoxyphenyl)-5-[6-(3-oxobenzomorpholiny)]oxazole] |  |  |  |  |  |  |  | IC50 (K562; 72 hours): 310 nM; IC50 (MCF-7; MCF-7 cells, 72 hours): 6.4 nM; IC50 (HCT-116; 72 hours): 121 nM; IC50 (NCI-H460; 72 hours): 26.4 nM; IC50 (DU-145; 72 hours): 76.2 nM
COc1cc(OC)cc(-c2ncn(CCO)c2-c2ccc(OC)c(F)c2)c1 [Compound C256, N-hydroxyethyl-4-(3,5-dimethoxyphenyl)-5-(3-fluoro-4-methoxyphenyl)imidazole] | 7.6 |  | 460 | > 300 | 10.3 | 1570 |  | 
CNc1ccc(-c2ocnc2-c2cc(OC)cc(OC)c2)cc1F [Compound C264, 4-(3,5-dimethoxyphenyl)-5-(3-fluoro-4-methylaminophenyl)oxazole] |  |  |  |  |  | 860 |  | 

From US9139574B2, “Tumor targeted drug combretastatin A4 derivative” (Nanjing Sanhome Pharmaceutical Co., Ltd., priority 2011, dated 2015)
